Data set [1] has as its system FLuc mRNA expression in HEK293, A549, and KB. Kind of data set: In vitro bioluminescent assay, FLuc mRNA delivery (Example 1). The class given is cell-based. The note with it: comparison of ionizable lipids (FIG. 1D) and helper lipids (FIG. 1E). As to the method:
In Vitro Bioluminescent Assay. HEK293, A549, and KB were seeded at 3000 cells/well in 96-well plates 24 hours prior to treatments. Cells were treated with 0.1 ug of FLuc mRNA in QTsome Original or QTPlus. Cells were allowed to uptake QTsome Original or QTPlus encapsulating mRNA overnight. The mRNA expression was determined by Bright-Glo™ Luciferase Assay System (Promega, Madison, WI).

The test system of data set [2] is A549 cells. The experiment in a line: Colony formation assay. The note with it: up to 1 week. The class given is cell-based. As to the method: Colony Formation Assay. A549 cells were seeded at 100 cells/well in 24-well plates 24 hours prior to treatments. Cells were treated with 16-mer and 20-mer AM21 in free solution and QTPlus at concentrations of 1 uM and 10 uM. Cells were allowed to form colony for up to 1-week followed with fixation by methanol and colony detection by crystal violet.

In data set [3] the test system is miR-21. The experiment in a line: In vitro gene regulation, RT-qPCR of miR-21 downstream genes. The note with it: KB and A549 cells; free solution, QTsome Original or QTPlus. It counts as cell-based. As to the method: In Vitro Gene Regulation. KB, A549, THP-1, MC38, and RAW264.7 cells were seeded at 3×10^5 cells/well in 6-well plates 24 hours prior to treatments. Cells were treated with scramble oligonucleotide or AM21 in free solution, lipofectamine, QTsome Original, and QTPlus. Total RNA was extracted using TRI reagent (Zymo Research) per manufacturer protocol. cDNA was prepared by high-capacity cDNA reverse transcription kit (Invitrogen, Waltham, MA, USA), and real-time qPCR (RT-qPCR) was done using SsoAdvanced™ Universal SYBR® Green Supermix (Bio-Rad Laboratories, Hercules, CA) on a QuantStudio 7 Flex Real-time PCR System. All the RT-qPCR primers were purchased from Sigma-Aldrich. Beta-actin (Actb) was selected as the housekeeping gene control. The relative amount of RNA level was calculated and compared according to the 2-ΔΔCt method.
A general note: Real-time PCR tracks product formation cycle by cycle.

For data set [4], the system named is FFLuc mRNA expression. Kind of data set: In vivo mRNA expression after IM injection (IVIS bioluminescence). The arrangement: species or system ICR CD-1 Swiss mice. Conditions: 1.5 μg per leg, two rounds combined, helper lipid in QTsome+. The text has this:
ICR CD-1 Swiss mice were purchased from Charles River Laboratory Animals were housed in a temperature-controlled room under a 12 hr light/12 hr dark cycle and fed normal chow diet. All animal studies were reviewed and approved by the Ohio State University Institutional Laboratory Animal Care and Use Committee. Both male and female mice were used for experiments. In vivo mRNA expression was quantified by measuring firefly luciferase bioluminescence. Mice treated with IM injection of FFLuc mRNA lipid QTsome+ nanoparticles at 1.5 μg per leg were injected with luciferin intraperitonially 5 minutes prior to bioluminescence measurements. Bioluminescence images were taken by a in vivo imaging system (IVIS) under optimal exposure settings.

In data set [5] the test system is HEK293T cells. Kind of data set: Bright-Glo luciferase assay, FFLuc mRNA delivery by QTsome+ (Example 2). The class given is cell-based. Conditions: 10,000 HEK293T cells, 100 ng FFLuc mRNA, overnight. As to the method: To examine the delivery efficiency of QTsome+ lipid nanoparticles, FFLuc mRNA was selected as the reporter gene of interest to be encapsulated into different QTsome+ formulations. Bioluminescence intensity was measured by Bright-Glo luciferase kit used as the quantification of expressed firefly luciferase after mRNA transfection. We treated 10,000 HEK293T cells overnight with 100 ng FFLuc mRNA utilizing different formulations with lipofectamine 3000 as the positive control. […] Therefore, the follow-on samples were formulated at room temperature instead of 65° C. or 37° C.

In data set [6] the test system is A549 cells. The experiment in a line: MTS assay, cell viability and synergy with erlotinib (CompuSyn). It counts as cell-based. The note with it: fixed-ratio combination of QTPlus-AM21 and erlotinib. As to the method: MTS Assay. A549 cells were seeded at 3000 cells/well in 96-well plates 25 hours before treatments. […] After 72-hour treatment, cell viability was examined by CellTiter 96® AQueous One Solution (Promega, Madison, WI) per manufacturer protocol.

In data set [7] the test system is A549 xenograft mouse model. The experiment in a line: In vivo antitumor efficacy of QTPlus-AM21 and erlotinib, A549 xenograft. The arrangement: species or system nude mice. Conditions: A549 xenograft mice, individually or in combination. As to the method:
Treatments were initiated once tumors reached 50-100 mm^3. […] All mice were dosed every 3 days for 5 doses. Tumor growth and body weight were monitored, and the tumor volumes were calculated according to the formula: All animal studies were reviewed and approved by The Ohio State University Institutional Laboratory Animal Care and Use Committee (IACUC). All mice were euthanized one day after the last dose to peak the immune activation and protein expression in TME.

Data set [8] in a line: TNS fluorescence assay, apparent pKa. The class given is physicochemical. The note with it: helper lipid in QTsome+, same % of DOTAP. As to the method: To evaluate the apparent pKa of the lipid QTsome+ nanoparticles including different combinations of lipids, 2-(p-toluidino) naphthalene-6-sulfonic acid (TNS) fluorescence assay was designed. TNS binds to positively charged lipids through electrostatic interactions and emits strong fluorescence upon excitation. A series of universal buffers (a combination of 10 mM NaCitrate, 10 mM NaPhasphate, 10 mM NaBorate, and 150 mM NaCl) with pH ranging from 3 to 12 was prepared. QTsome+ were diluted in these buffers at the final ionizable lipid (including SM-102, A066, DODMA and DOTAP) concentration of 75 μM. TNS was then added to the final concentration at 6.0 μM. pH was measured after thorough mixing of TNS and QTsome+ using a pH meter. TNS Fluorescence was obtained by transferring 200 μL of samples into a black-opaque plate in triplicate, and reading using a SpectraMax M5 plate reader with the excitation (λex) at 325 nm and the emission (Nem) at 435 nm. It was assumed that in the presence of amino lipids, TNS fluorescence reaches a maximum when 100% of the amino lipids are ionized, while TNS has little fluorescence when the amino lipids are in the un-ionized state. […]
Where FL is TNS fluorescence value, pKa is apparent pKa of the amino lipids, b is the measure of the cooperativeness of the protonation process of […].

The subject of data set [9] is MC38 murine colorectal syngeneic model. Kind of data set: In vivo antitumor efficacy, MC38 syngeneic model. More on the design: species or system C57BL/6 mice. Conditions: MC38 syngeneic mice, individually or in combination. As to the method:
To evaluate the combination therapy of QTPlus-AM21 and anti-PDL I therapy, MC38 murine colorectal syngeneic model was generated by subcutaneously inoculating C57BL/6 mice (obtained from Charles River Laboratories) with 1×10^6 cells per mouse on the right flack. Treatments were initiated once tumors reached 50-100 mm^3. Mice (n=5) were intraperitoneally treated with saline, 3 mg/kg QTPlus-encapsulating scramble oligonucleotide, 3 mg/kg QTPlus-AM21, 10 mg/kg atezolizumab, and QTPlus-AM21/atezolizumab combination (3 mg/kg QTPlus-AM21 and 10 mg/kg atezolizumab).
All mice were dosed every 3 days for 5 doses. Tumor growth and body weight were monitored, and the tumor volumes were calculated according to the formula: […]
All animal studies were reviewed and approved by The Ohio State University Institutional Laboratory Animal Care and Use Committee (IACUC). All mice were euthanized one day after the last dose to peak the immune activation and protein expression in TME. Terminal Tumor growth inhibition (% TGI) was determined by the formula: […]
Flow Cytometry. […] Stained cells were analyzed using an LSR II flow cytometer in Flow Cytometry Shared Resources (FCSR) at The Ohio State University Comprehensive Cancer Center.

Take `CCCCC/C=C\C/C=C\CCCCCCCCOCC(CN1CCCC1)OCCCCCCCC/C=C\C/C=C\CCCCC` (centres unmarked) [A-066, 1-(2,3-bis(((9Z,12Z)-octadeca-9,12-dien-1-yl)oxy)propyl)pyrrolidine]: in data set [1], the “mRNA delivery efficiency of QTPlus with different components” value is given as “the most suitable for mRNA delivery in QTsome platform”. For “5′-A*+T*+C*A*G*+T*+C*+T*G*A*+T*A*A*G*+C*+T-3′ (ATCAGTCTGATAAGCT; chemistry not given here) [AM21]”, in data set [2], the “Inhibition of colony formation / A549 cell growth” value was “superior in inhibiting A549 cell growth in vitro”. Besides, the “miR-21 downstream gene regulation” value in [3] was “Akt1 downregulation, Ddah1 upregulation, and Pdl1 upregulation”.

For `CCCCCCCC/C=C\CCCCCCCC(=O)OC[C@H](COP(=O)(O)OCCN)OC(=O)CCCCCCC/C=C\CCCCCCCC` [DOPE, 1,2-dioleoyl-sn-glycero-3-phosphoethanolamine], the “In vivo delivery efficiency (FLuc expression)” value in data set [4] is recorded as “rather outperformed PC-based helper lipids”. Besides, the “Bioluminescence intensity (mRNA delivery efficiency)” value in data set [5] is “outperformed DOPC and DSPC”. Also, in data set [1], the “mRNA delivery efficiency of QTPlus with different components” value is recorded as “the most suitable as helper lipids”.

For `C#Cc1cccc(Nc2ncnc3cc(OCCOC)c(OCCOC)cc23)c1` [erlotinib, Erlotinib], the “Dose reduction index (DRI)” value in data set [6] was determined as 2.26. In data set [7], the Body weight entry is recorded as “No significant differences in body weight”.

With `CCCCCCCCCCCCCCCCCC(=O)OC[C@H](COP(=O)([O-])OCC[N+](C)(C)C)OC(=O)CCCCCCCCCCCCCCCCC` [DSPC, distearoylphosphatidylcholine], the “Apparent pKa” value in data set [8] is “lowest pKa among all”. For “atezolizumab: an anti-PDL1 therapy, monoclonal antibody”, the Body weight result in data set [9] is on record as “No significant differences in body weight”. In the case of `CCCCC/C=C\C/C=C\CCCCCCCCC(CCCCCCCC/C=C\C/C=C\CCCCC)OC(=O)CCCN(C)C` [MC3, dilinoleylmethyl-4-dimethylaminobutyrate, reference compound], the “Bioluminescence intensity (mRNA delivery efficiency)” value in data set [5] is reported as “slightly increased the delivery efficiency”.
